The results in this text go back to PMC10545747, “Development of cyclopeptide inhibitors of cGAS targeting protein-DNA interaction and phase separation” (Nature Communications, 2023).

Values joined by “and” are separate entries in the source; they are usually repeats but may differ in a detail not shown here. Identical values can stand only once. Square brackets hold non-standard residues; d marks the D form. Peptide text beside a SMILES is read from it.

One data set deals with RAW264.7 cells. The experiment in a line: in vitro. To be noted: for Cell viability (Fig. S2e): RAW264.7 (48h). The method, then: (§1) Cell viability was measured by cell counting kit-8 (TargetMol) according to the manufacturer’s instructions. […]
(§2) (e-g) THP1 cells (e), L929 cells (f) and RAW264.7 cells (g) were exposed to the indicated doses of XQ2 for 48h, the cell viability was measured by CCK8 assay. Data are representative of three independent experiments in (a-g). (Data are presented as mean ± SD, n = 3 independent samples in (a-g), **p < 0.01, ***p < 0.001, ****p < 0.0001 using one-way ANOVA with Dunnett’s post hoc test).
(§3) Source data are provided as a Source Data file.

The next data set concerns L929 cells. Put plainly: in vitro. To be noted: for Cell viability (Fig. S2e): L929 (48h). Here is the method:
as §1, §2, §3

Data set [1] deals with Cy5-ISD (45-bp dsDNA ISD). Put plainly: Microscale thermophoresis (MST) with dsDNA. To be noted: Cy5-ISD 10 nM. Type of data set: binding. For orientation: In MST a laser heats a spot of the sample, and binding alters the fluorescence response.
Method: Excitation was optimized by varying the power to obtain fluorescence intensities above 200 counts. Data were analyzed by using the MO.Affinity Analysis software.
For a further data set, the target named is hcGAS-FL + FAM-ISD (Homo sapiens, UniProt Q8N884). Put plainly: biochemical. The method, then:
Purified hcGAS-FL (300 nM) or hcGAS-FL (D191R) (300 nM) and FAM-labeled DNA (FAM-ISD) (40 nM) were incubated with or without XQ2 in buffer (20 mM HEPSE, pH 7.5, 125 mM KCl, 10 mM MgCl2). Samples were dispensed in 30 μ L final volumes per well into a 384-well flat-bottom black plate (Corning 3575). The polarization was detected by a microplate reader (BioTek Synergy H1) with a fluorescence polarization filter cube (excitation wavelength: 485 ± 10 nm; emission wavelength: 528 ± 10 nm) immediately.

Data set [2] concerns primary bone marrow-derived macrophages (BMDMs) from C57BL/6 mice. Put plainly: qPCR of Ifnb1/Cxcl10 mRNA in BMDMs (ISD or HSV-1). Type of data set: cell-based, mouse. Here is the method:
(§4) The indicated cells were stimulated with either ISD (Sangon Biotech), HSV-1 (Provided by Dr. Zhengfan Jiang), HSV60mer (Sangon Biotech), SATE-cddA[70], 2’3’-cGAMP (Invivogen, Cat# tlrl-nacga23-1), ADU-S100 (MedChemExpress, Cat# HY-12885A) or Poly(I:C) (Invivogen, Cat# tlrl-pic) after XQ2 or XQ2B treatment. Total RNA was isolated from indicated cells that incubated with the drugs for indicated time or mice tissues by using NucleoZOL reagent (MACHEREY-NAGEL) according to the manufacturer’s instructions. The quantifications of mRNA levels were carried out by real-time PCR using a PerfectStart® Uni RT&qPCR Kit (TransGen Biotech) on the QuantStudio 5 qPCR machine (Applied Biosystems). Samples were carried out in triplicate and the target CT values were normalized to GAPDH CT values. Primers of qPCR used in this study can be found in Supplementary Table S2.
C57BL/6 6–8 weeks old wild type (WT) mice were purchased from Gempharmatech. C57BL/6 Trex1^+/- mice were purchased from Cyagen. Trex1^-/- mice were generated by further mating the male and female Trex1^+/- mice, and 8-week-old male Trex1^-/- mice were used in the experiment. Mice were housed in groups of up to 5 mice/cage at 18 °C − 24 °C ambient temperatures with 40–60% humidity. Mice were maintained on a 12 h light/ dark cycle 6 am to 6 pm. Food and water were available ad libitum. Femurs and tibias were removed from sex-matched mice of 6–8 weeks old, and the ends were clipped. Marrow was pushed from bones by using a syringe, and cell clumps were broken apart into cell particles by pipetting in PBS, and passed through a 70 μm cell strainer. Cells were resuspended in red blood cell lysis buffer (Solarbio) for 5 min after being centrifuged with 200 × g for 5 min, and were resuspended in cell culture media (DMEM) with an additional M-CSF (50 ng/ml) after centrifugation, and then were seeded into a 12-well plate. Half of the cell culture media was replaced with a fresh medium on the third day, and performed a complete media change on the fifth day. BMDMs were used for subsequent experiments after the seventh day. All the animal experiments in these studies were approved and overseen by the ethics committee of the Laboratory Animal Center of Peking University Shenzhen Graduate School in accordance with the Policy on the Care, Welfare, and Treatment of Laboratory Animals. The assigned approval or accreditation number is AP0020005.
Supplementary Fig. 2. […] (a, b) THP1 cells were
(c) L929, p = 0.0005 (Ifnb1),
BMDMs, p = 0.0001 (Ifnb1), p < 0.0001 (Cxcl10).
representative of three independent experiments in (a-g). (Data are presented as mean ± SD, n = 3 independent
as §3
For orientation: Quantitative PCR measures a nucleic acid by following its amplification.

For data set [3], the system named is TREX1 knockdown THP1 cells. The experiment in a line: qPCR of IFNB1 and CXCL10 mRNA after TREX1 siRNA. Type of data set: cell-based, human. Here is the method: as §4
siRNA of TREX1 (siTREX1) was transfected into the indicated cells by Lipofectamine RNAiMAX (Invitrogen) according to the manufacturer’s instructions. Human siTREX1, mouse siTrex1 and negative control siRNAs were purchased from Sangon Biotech. The sequences of siRNAs oligonucleotides can be found in Supplementary Table S2.
Supplementary Fig. 9. XQ2B reduces interferon expression induced by Trex1 deficiency. […]
TREX1 knockdown THP1 cells were treated with DMSO or XQ2B (10 μM) for 24 h, and the mRNA levels of TREX1
(e), IFNB1 and CXCL10 (f) were measured by qPCR. (e) p < 0.0001, (f) p = 0.0001 (Ifnb1); p = 0.0157 (Cxcl10). Data
as §3

Chain of hcGAS-FL + FAM-ISD (Q8N884 whole entry): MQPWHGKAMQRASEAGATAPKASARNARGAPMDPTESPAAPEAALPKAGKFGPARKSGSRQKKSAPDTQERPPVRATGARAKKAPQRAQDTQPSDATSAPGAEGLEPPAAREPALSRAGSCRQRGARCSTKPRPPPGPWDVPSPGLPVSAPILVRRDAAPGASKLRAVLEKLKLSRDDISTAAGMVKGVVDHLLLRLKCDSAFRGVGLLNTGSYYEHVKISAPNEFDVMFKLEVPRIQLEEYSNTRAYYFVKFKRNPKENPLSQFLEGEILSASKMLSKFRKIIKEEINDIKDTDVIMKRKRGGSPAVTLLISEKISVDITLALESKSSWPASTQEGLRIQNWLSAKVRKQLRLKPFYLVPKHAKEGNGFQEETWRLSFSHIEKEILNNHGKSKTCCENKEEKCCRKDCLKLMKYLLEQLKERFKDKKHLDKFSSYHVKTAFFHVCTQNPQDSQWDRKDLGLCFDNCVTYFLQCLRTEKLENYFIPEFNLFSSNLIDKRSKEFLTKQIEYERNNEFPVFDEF

Broadly, the IC50 is the concentration that inhibits the measured activity by half. Take `CC(C)C[C@@H]1NC(=O)[C@H](CCCNC(=N)N)NC(=O)[C@H](C(C)C)NC(=O)[C@@H]2CCCN2C(=O)[C@@H](Cc2ccccc2)NC(=O)[C@H](CC(C)C)NC(=O)[C@H](CCCNC(=N)N)NC(=O)[C@H](C(C)C)NC(=O)[C@H](C)NC(=O)[C@@H](Cc2ccccc2)NC1=O` [XQ2, Cyclo (LfAVRLfPVR)] (cyclo(L[dF]AVRL[dF]PVR)): the “Cell viability (Fig. S2e)” value in the data set with RAW264.7 cells (XQ2 0.16 μM) is 99.8864 and 99.6917; in the data set with RAW264.7 cells (XQ2 0.31 μM), 112.786 and 105.825; in the data set on RAW264.7 cells (XQ2 0.63 μM), 111.812 and 107.48; in the data set on RAW264.7 cells (XQ2 1.25 μM), 113.808 and 104.608; in the data set with RAW264.7 cells (XQ2 2.5 μM), 105.825 and 105.241; with RAW264.7 cells (XQ2 5 μM), 107.821 and 104.219. For the same compound, the “Cell viability (Fig. S2e)” value in the data set with RAW264.7 cells (XQ2 10 μM) is 108.843 and 106.117; in the data set with L929 cells (XQ2 0.23 μM) it was 110.662 and 106.618; in the data set with L929 cells (XQ2 0.47 μM) it was 92.2794 and 86.3971; in the data set on L929 cells (XQ2 0.94 μM), 87.1324 and 89.2157; in the data set on L929 cells (XQ2 1.88 μM) it was 84.4363 and 91.299; in the data set with L929 cells (XQ2 3.75 μM), 94.6078 and 92.0343. In addition, the “Cell viability (Fig. S2e)” value in the data set with L929 cells (XQ2 7.5 μM) was 92.2794 and 92.1569; in the data set with L929 cells (XQ2 15 μM) it was 85.049 and 94.6078. Further, the “cytotoxicity” value is “no cytotoxicity” in the data set with RAW264.7 cells (RAW264.7, 48h) and “no cytotoxicity” in the data set on L929 cells (L929, 48h). Moreover, in data set [1], the “binding with ISD, MST” value is “no binding of XQ2 with ISD”. Besides, the half-inhibitory concentration (IC50) at hcGAS-FL + FAM-ISD is 19.2 ± 6.7 µM. Further, the “Ifnb1 and Cxcl10 expression induced by ISD and HSV-1” value in data set [2] (10 μM) is “significantly inhibited the expression of Ifnb1 and its downstream gene Cxcl10”. Besides, the “Cxcl10 mRNA (Fig. S2d)” value was 143.811 and 140.79 and 131.38 in data set [2] (HSV-1+XQ2); 1.406 and 1.738 and 1.597 in data set [2] (XQ2 alone). Further, the “Ifnb1 mRNA (Fig. S2d)” value is 30.4765 and 34.353 and 35.6259 in data set [2] (HSV-1+XQ2); 0.9266 and 0.5519 and 1.072 in data set [2] (XQ2 alone). For the same compound, the “Cxcl10 mRNA (Fig. S2c)” value in data set [2] (ISD+XQ2) was 62.8779 and 59.0359 and 62.3708; in data set [2] (XQ2 alone), 1.406 and 1.738 and 1.597. The “Ifnb1 mRNA (Fig. S2c)” value in data set [2] (ISD+XQ2) is 709.298 and 846.919 and 741.167; in data set [2] (XQ2 alone), 0.9266 and 0.5519 and 1.072.
As to `CC(C)C[C@@H]1NC(=O)[C@H](CCCNC(=N)N)NC(=O)[C@H](C(C)C)NC(=O)[C@@H]2CCCN2C(=O)[C@@H](Cc2ccccc2)NC(=O)[C@H](CC(C)C)NC(=O)[C@H](CCCNC(=N)N)NC(=O)[C@H]([C@@H](C)O)NC(=O)[C@H](C)NC(=O)[C@@H](Cc2ccccc2)NC1=O` [XQ2B] (cyclo([dF]ATRL[dF]PVRL)), the “Relative mRNA level Cxcl10” value in data set [3] (Fig. S9f, TREX1 knockdown (siTREX1 +) THP1 cells, XQ2B +, individual replicates, siTREX1 alone 2.64-3.32) is 2.255 and 1.956 and 2.174. Besides, the “Relative mRNA level Ifnb1” value in data set [3] (Fig. S9f, TREX1 knockdown (siTREX1 +) THP1 cells, XQ2B +, individual replicates, siTREX1 alone 15.6-16.4) is 8.9487 and 8.582 and 9.951. The “expression of Ifnb1, Cxcl10 with Trex1-siRNA” value in data set [3] (THP1, 10 μM, 24 h) was “markedly inhibited the expression of these genes in mouse L929 and human THP1 cells with Trex1-siRNA”.
